Results published in patent US20240246977A1, “DEGRADATION OF BRUTON'S TYROSINE KINASE (BTK) BY CONJUGATION OF BTK INHIBITORS WITH E3 LIGASE LIGAND AND METHOD OF USE” (BeiGene Switzerland GmbH, priority 2021, published 2024).

Assays:
BTK = BTK (Homo sapiens, UniProt Q06187); assay: BTK cell degradation in TMD-8 cells, HTRF assay; type: cell-based; parameters: endogenous in cells; host or cells: TMD-8 cells; conditions: 6 h treatment, IC50 (DC50) of BTK degradation
Method in brief: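 TMD-8 cells treated 6 h with 8-dose series (6-fold dilutions, 0.2% DMSO final), then lysed and BTK quantified by HTRF (337/665/620 nm) after overnight antibody incubation at room temperature. Degradation normalized to DMSO high and low controls; DC50 and Dmax from four-parameter fit.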

HEK-293 cells = assay: HEK-293 cytotoxicity detection (CellTiter-Glo); type: cell-based; conditions: Homo sapiens, 72 h, 72 h incubation, CellTiter-Glo luminescence, read-out: HEK293
Method in brief: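 HEK-293 cells exposed 72 h to 8 compounds doses (4-fold dilutions, top stock 5 mM at 500×) in 0.2% DMSO. Viability by CellTiter-Glo luminescence; inhibition normalised to DMSO high control and low control, IC50 from four-parameter curve fit.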

BTK, sequence (Q06187 whole entry): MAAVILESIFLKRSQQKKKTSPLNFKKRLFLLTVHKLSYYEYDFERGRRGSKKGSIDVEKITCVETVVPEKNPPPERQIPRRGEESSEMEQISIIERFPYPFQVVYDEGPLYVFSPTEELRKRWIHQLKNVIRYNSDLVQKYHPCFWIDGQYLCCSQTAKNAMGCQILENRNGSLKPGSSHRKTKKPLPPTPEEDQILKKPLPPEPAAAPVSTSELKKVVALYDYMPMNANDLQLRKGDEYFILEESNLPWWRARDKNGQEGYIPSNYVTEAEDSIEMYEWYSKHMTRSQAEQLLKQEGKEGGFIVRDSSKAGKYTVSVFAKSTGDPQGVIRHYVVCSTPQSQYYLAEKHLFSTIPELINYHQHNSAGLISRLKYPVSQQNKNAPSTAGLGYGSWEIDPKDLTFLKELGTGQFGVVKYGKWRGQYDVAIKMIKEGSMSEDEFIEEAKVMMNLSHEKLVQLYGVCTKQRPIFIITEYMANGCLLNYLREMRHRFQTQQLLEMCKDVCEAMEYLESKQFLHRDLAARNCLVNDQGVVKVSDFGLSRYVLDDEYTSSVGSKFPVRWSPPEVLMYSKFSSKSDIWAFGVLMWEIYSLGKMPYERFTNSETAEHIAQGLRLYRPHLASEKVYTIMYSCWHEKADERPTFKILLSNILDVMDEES

Compound | DC50 (BTK) | IC50 (HEK-293 cells)
NC(=O)c1c(-c2ccc(C(=O)Nc3ccc(C(F)(F)F)cn3)cc2)nn2c1Nc1ccc(N3CCN(CC4CCN(c5ccc(N6CCC(=O)NC6=O)cc5)CC4)CC3)cc1CC2 [Example B17, 7-(4-((1-(4-(2,4-dioxotetrahydropyrimidin-1(2H)-yl)phenyl)piperidin-4-yl)methyl)piperazin-1-yl)-2-(4-((5-(trifluoromethyl)pyridin-2-yl)carbamoyl)phenyl)-9,10-dihydro-4H-benzo[d]pyrazolo[1,5-a][1,3]diazepine-3-carboxamide] | 2.19 nM | > 10000 nM
NC(=O)c1c(-c2ccc(C(=O)Nc3cc(C(F)F)ccn3)cc2)nn2c1Nc1ccc(N3CCN(CC4CCN(c5ccc(N6CCC(=O)NC6=O)cc5)CC4)CC3)cc1CC2 [Example B18, 2-(4-((4-(difluoromethyl)pyridin-2-yl)carbamoyl)phenyl)-7-(4-((1-(4-(2,4-dioxotetrahydropyrimidin-1(2H)-yl)phenyl)piperidin-4-yl)methyl)piperazin-1-yl)-9,10-dihydro-4H-benzo[d]pyrazolo[1,5-a][1,3]diazepine-3-carboxamide] | 0.378 nM | > 10000 nM
Cc1cccc(NC(=O)c2ccc(-c3nn4c(c3C(N)=O)Nc3ccc(N5CCN(CC6CCN(c7ccc(N8CCC(=O)NC8=O)cc7)CC6)CC5)cc3CC4)cc2)n1 [Example B19, 7-(4-((1-(4-(2,4-dioxotetrahydropyrimidin-1(2H)-yl)phenyl)piperidin-4-yl)methyl)piperazin-1-yl)-2-(4-((6-methylpyridin-2-yl)carbamoyl)phenyl)-9,10-dihydro-4H-benzo[d]pyrazolo[1,5-a][1,3]diazepine-3-carboxamide] | 0.284 nM | > 10000 nM
Cc1cccc(NC(=O)c2ccc(-c3nn4c(c3C(N)=O)Nc3ccc(N5CCN(CC6CCN(c7ccc(N8CCC(=O)NC8=O)cc7)CC6)CC5)cc3CC4)c(Cl)c2)n1 [Example B20, 2-(2-chloro-4-((6-methylpyridin-2-yl)carbamoyl)phenyl)-7-(4-((1-(4-(2,4-dioxotetrahydropyrimidin-1(2H)-yl)phenyl)piperidin-4-yl)methyl)piperazin-1-yl)-9,10-dihydro-4H-benzo[d]pyrazolo[1,5-a][1,3]diazepine-3-carboxamide] | 0.469 nM | > 10000 nM
Cc1cccc(NC(=O)c2ccc(-c3nn4c(c3C(N)=O)Nc3ccc(N5CCN(CC6CCN(c7ccc(N8CCC(=O)NC8=O)cc7)CC6)CC5)cc3CC4)cc2C)n1 [Example B21, 7-(4-((1-(4-(2,4-dioxotetrahydropyrimidin-1(2H)-yl)phenyl)piperidin-4-yl)methyl)piperazin-1-yl)-2-(3-methyl-4-((6-methylpyridin-2-yl)carbamoyl)phenyl)-9,10-dihydro-4H-benzo[d]pyrazolo[1,5-a][1,3]diazepine-3-carboxamide] | 0.602 nM | > 10000 nM
COc1cc(C(=O)Nc2cccc(C)n2)ccc1-c1nn2c(c1C(N)=O)Nc1ccc(N3CCN(CC4CCN(c5ccc(N6CCC(=O)NC6=O)cc5)CC4)CC3)cc1CC2 [Example B22, 7-(4-((1-(4-(2,4-dioxotetrahydropyrimidin-1(2H)-yl)phenyl)piperidin-4-yl)methyl)piperazin-1-yl)-2-(2-methoxy-4-((6-methylpyridin-2-yl)carbamoyl)phenyl)-9,10-dihydro-4H-benzo[d]pyrazolo[1,5-a][1,3]diazepine-3-carboxamide] | 0.338 nM | > 10000 nM
Cc1cc(C)nc(NC(=O)c2ccc(-c3nn4c(c3C(N)=O)Nc3ccc(N5CCN(CC6CCN(c7ccc(N8CCC(=O)NC8=O)cc7)CC6)CC5)cc3CC4)cc2C)c1 [Example B23, 2-(4-((4,6-dimethylpyridin-2-yl)carbamoyl)-3-methylphenyl)-7-(4-((1-(4-(2,4-dioxotetrahydropyrimidin-1(2H1)-yl)phenyl)piperidin-4-yl)methyl)piperazin-1-yl)-9,10-dihydro-4H-benzo[d]pyrazolo[1,5a][1,3]diazepine-3-carboxamide] | 0.594 nM | > 10000 nM
NC(=O)c1c(-c2ccc(C(=O)Nc3cc(C(F)(F)F)ccn3)cc2Cl)nn2c1Nc1ccc(N3CCN(CC4CCN(c5ccc(N6CCC(=O)NC6=O)cc5)CC4)CC3)cc1CC2 [Example B24, 2-(2-chloro-4-((4-(trifluoromethyl)pyridin-2-yl)carbamoyl)phenyl)-7-(4-((1-(4-(2,4-dioxotetrahydropyrimidin-1(2H)-yl)phenyl)piperidin-4-yl)methyl)piperazin-1-yl)-9,10-dihydro-4-benzo[d]pyrazolo[1,5-a][1,3]diazepine-3-carboxamide] | 1.51 nM | > 10000 nM
Cc1cccc(NC(=O)c2ccc(-c3nn4c(c3C(N)=O)Nc3ccc(N5CCN(CC6CCN(c7ccc(N8CCC(=O)NC8=O)cc7)CC6)CC5)cc3CC4)cc2Cl)n1 [Example B25, 2-(3-chloro-4-((6-methylpyridin-2-yl)carbamoyl)phenyl)-7-(4-((1-(4-(2,4-dioxotetrahydropyrimidin-1(2H)-yl)phenyl)piperidin-4-yl)methyl)piperazin-1-yl)-9,10-dihydro-4H-benzo[d]pyrazolo[1,5-a][1,3]diazepine-3-carboxamide] | 0.415 nM | > 10000 nM
NC(=O)c1c(-c2ccc(C(=O)Nc3cc(C(F)(F)F)ccn3)c(Cl)c2)nn2c1Nc1ccc(N3CCN(CC4CCN(c5ccc(N6CCC(=O)NC6=O)cc5)CC4)CC3)cc1CC2 [Example B26, 2-(3-chloro-4-((4-(trifluoromethyl)pyridin-2-yl)carbamoyl)phenyl)-7-(4-((1-(4-(2,4-dioxotetrahydropyrimidin-1(2H)-yl)phenyl)piperidin-4-yl)methyl)piperazin-1-yl)-9,10-dihydro-4H-benzo[d]pyrazolo[1,5-a][1,3]diazepine-3-carboxamide] | 0.928 nM | > 10000 nM
COc1cc(C(=O)Nc2cc(C(F)(F)F)ccn2)ccc1-c1nn2c(c1C(N)=O)Nc1ccc(N3CCN(CC4CCN(c5ccc(N6CCC(=O)NC6=O)cc5)CC4)CC3)cc1CC2 [Example B27, 7-(4-((1-(4-(2,4-dioxotetrahydropyrimidin-1(2H)-yl)phenyl)piperidin-4-yl)methyl)piperazin-1-yl)-2-(2-methoxy-4-((4-(trifluoromethyl)pyridin-2-yl)carbamoyl)phenyl)-9,10-dihydro-4H-benzo[d]pyrazolo[1,5-a][1,3]diazepine-3-carboxamide] | 0.849 nM | > 10000 nM
Cc1cccc(NC(=O)c2ccc(-c3nn4c(c3C(N)=O)Nc3ccc(N5CCN(CC6CCN(c7ccc(N8CCC(=O)NC8=O)cc7)CC6)CC5)cc3CC4)c(F)c2C)n1 [Example B28, 7-(4-((1-(4-(2,4-dioxotetrahydropyrimidin-1(2H)-yl)phenyl)piperidin-4-yl)methyl)piperazin-1-yl)-2-(2-fluoro-3-methyl-4-((6-methylpyridin-2-yl)carbamoyl)phenyl)-9,10-dihydro-4H-benzo[d]pyrazolo[1,5-a][1,3]diazepine-3-carboxamide] | 0.726 nM | > 10000 nM
Cc1cc(C(F)(F)F)cc(NC(=O)c2ccc(-c3nn4c(c3C(N)=O)Nc3ccc(N5CCN(CC6CCN(c7ccc(N8CCC(=O)NC8=O)cc7)CC6)CC5)cc3CC4)c(F)c2C)n1 [Example B29, 7-(4-((1-(4-(2,4-dioxotetrahydropyrimidin-1(2H)-yl)phenyl)piperidin-4-yl)methyl)piperazin-1-yl)-2-(2-fluoro-3-methyl-4-((6-methyl-4-(trifluoromethyl)pyridin-2-yl)carbamoyl)phenyl)-9,10-dihydro-4H-benzo[d]pyrazolo[1,5-a][1,3]diazepine-3-carboxamide] | 2.44 nM | > 10000 nM
Cc1cccc(NC(=O)c2cc(F)c(-c3nn4c(c3C(N)=O)Nc3ccc(N5CCN(CC6CCN(c7ccc(N8CCC(=O)NC8=O)cc7)CC6)CC5)cc3CC4)cc2C)n1 [Example B30, 7-(4-((1-(4-(2,4-dioxotetrahydropyrimidin-1(2H)-yl)phenyl)piperidin-4-yl)methyl)piperazin-1-yl)-2-(2-fluoro-5-methyl-4-((6-methylpyridin-2-yl)carbamoyl)phenyl)-9,10-dihydro-4H-benzo[d]pyrazolo[1,5-a][1,3]diazepine-3-carboxamide] | 2.53 nM | > 10000 nM
Cc1cccc(NC(=O)c2ncc(-c3nn4c(c3C#N)Nc3ccc(N5CCN(CC6CCN(c7ccc(N8CCC(=O)NC8=O)cc7)CC6)CC5)cc3CC4)cc2C)n1 [Example B31, 5-(3-cyano-7-(4-((1-(4-(2,4-dioxotetrahydropyrimidin-1(2H)-yl)phenyl)piperidin-4-yl)methyl)piperazin-1-yl)-9,10-dihydro-4H-benzo[d]pyrazolo[1,5-a][1,3]diazepin-2-yl)-3-methyl-N-(6-methylpyridin-2-yl)picolinamide] | > 2000 nM | 133 nM
Cc1cccc(NC(=O)c2ncc(-c3nn4c(c3C(N)=O)Nc3ccc(N5CCN(CC6CCN(c7ccc(N8CCC(=O)NC8=O)cc7)CC6)CC5)cc3CC4)cc2C)n1 [Example B32, 7-(4-((1-(4-(2,4-dioxotetrahydropyrimidin-1(2H)-yl)phenyl)piperidin-4-yl)methyl)piperazin-1-yl)-2-(5-methyl-6-((6-methylpyridin-2-yl)carbamoyl)pyridin-3-yl)-9,10-dihydro-4H-benzo[d]pyrazolo[1,5-a][1,3]diazepine-3-carboxamide] | 8.86 nM | 332 nM
Cc1cccc(NC(=O)c2ncc(-c3nn4c(c3C(N)=O)Nc3ccc(N5CCN(CCc6cc(F)c(C7CCC(=O)NC7=O)c(F)c6)CC5)cc3CC4)cc2C)n1 (stereo not shown) [Example B33, 7-(4-(4-(2,6-dioxopiperidin-3-yl)-3,5-difluorophenethyl)piperazin-1-yl)-2-(5-methyl-6-((6-methylpyridin-2-yl)carbamoyl)pyridin-3-yl)-9,10-dihydro-4H-benzo[d]pyrazolo[1,5-a][1,3]diazepine-3-carboxamide] | 17.6 nM | 400 nM
